This note sets out measurements from US20210253568A1, “AZAINDOLE DERIVATIVES AS RHO-KINASE INHIBITORS” (CHIESI FARMACEUTICI S.p.A., priority 2018, published 2021).

Experiment [1] concerns the target ROCK 1 (Homo sapiens, UniProt Q13464). Description: In vitro Rho kinase inhibitory activity assay (ADP-Glo), Rho kinase 1. It counts as biochemical. The following applies: Ki by Cheng-Prusoff from IC50; 10 μM ATP, 25° C., expressed as range of activity. The procedure: (§1) The effectiveness of compounds of the present invention to inhibit Rho kinase activity can be determined in a 10 μl assay containing 40 mM Tris pH7.5, 20 mM MgCl2 0.1 mg/mi BSA, 50 μM DTT and 2.5 μM peptide substrate (Myelin Basic Protein) using an ADP-Glo kit (Promega). Compounds were dissolved in DMSO such that the final concentration of DMSO was 1% in the assay. All reactions/incubations are performed at 25° C. Compound (2 ul) and either Rho kinase 1 or 2 (4 μl) were mixed and incubated for 30 mins. Reactions were initiated by addition of ATP (4 μl) such that the final concentration of ATP in the assay was 10 μM. After a 1 hour incubation 10 μl of ADP-Glo Reagent was added and after a further 45 minute incubation 20 ul of Kinase Detection Buffer was added and the mixture incubated for a further 30 minutes. The luminescent signal was measured on a luminometer. […] Compounds were tested in dose-response format and the inhibition of kinase activity was calculated at each concentration of compound. To determine the IC50 (concentration of compound required to inhibit 50% of the enzyme activity) data were fit to a plot of % inhibition vs Log10 compound concentration using a sigmoidal fit with a variable slope and fixing the maximum to 100% and the minimum to 0%. To determine the Ki values the Cheng-Prusoff equation was utilized (Ki=IC50/(1+[S]/Km).
For orientation: ADP-Glo turns the ADP formed in a reaction into a luminescent signal.

Experiment [2] deals with ROCK 2 (Homo sapiens, UniProt O75116). Description: In vitro Rho kinase inhibitory activity assay (ADP-Glo), Rho kinase 2. To be noted: Ki by Cheng-Prusoff from IC50; 10 μM ATP, 25° C., expressed as range of activity. In kind it is biochemical. The procedure: as §1
Sequence of ROCK 2 (O75116 whole entry): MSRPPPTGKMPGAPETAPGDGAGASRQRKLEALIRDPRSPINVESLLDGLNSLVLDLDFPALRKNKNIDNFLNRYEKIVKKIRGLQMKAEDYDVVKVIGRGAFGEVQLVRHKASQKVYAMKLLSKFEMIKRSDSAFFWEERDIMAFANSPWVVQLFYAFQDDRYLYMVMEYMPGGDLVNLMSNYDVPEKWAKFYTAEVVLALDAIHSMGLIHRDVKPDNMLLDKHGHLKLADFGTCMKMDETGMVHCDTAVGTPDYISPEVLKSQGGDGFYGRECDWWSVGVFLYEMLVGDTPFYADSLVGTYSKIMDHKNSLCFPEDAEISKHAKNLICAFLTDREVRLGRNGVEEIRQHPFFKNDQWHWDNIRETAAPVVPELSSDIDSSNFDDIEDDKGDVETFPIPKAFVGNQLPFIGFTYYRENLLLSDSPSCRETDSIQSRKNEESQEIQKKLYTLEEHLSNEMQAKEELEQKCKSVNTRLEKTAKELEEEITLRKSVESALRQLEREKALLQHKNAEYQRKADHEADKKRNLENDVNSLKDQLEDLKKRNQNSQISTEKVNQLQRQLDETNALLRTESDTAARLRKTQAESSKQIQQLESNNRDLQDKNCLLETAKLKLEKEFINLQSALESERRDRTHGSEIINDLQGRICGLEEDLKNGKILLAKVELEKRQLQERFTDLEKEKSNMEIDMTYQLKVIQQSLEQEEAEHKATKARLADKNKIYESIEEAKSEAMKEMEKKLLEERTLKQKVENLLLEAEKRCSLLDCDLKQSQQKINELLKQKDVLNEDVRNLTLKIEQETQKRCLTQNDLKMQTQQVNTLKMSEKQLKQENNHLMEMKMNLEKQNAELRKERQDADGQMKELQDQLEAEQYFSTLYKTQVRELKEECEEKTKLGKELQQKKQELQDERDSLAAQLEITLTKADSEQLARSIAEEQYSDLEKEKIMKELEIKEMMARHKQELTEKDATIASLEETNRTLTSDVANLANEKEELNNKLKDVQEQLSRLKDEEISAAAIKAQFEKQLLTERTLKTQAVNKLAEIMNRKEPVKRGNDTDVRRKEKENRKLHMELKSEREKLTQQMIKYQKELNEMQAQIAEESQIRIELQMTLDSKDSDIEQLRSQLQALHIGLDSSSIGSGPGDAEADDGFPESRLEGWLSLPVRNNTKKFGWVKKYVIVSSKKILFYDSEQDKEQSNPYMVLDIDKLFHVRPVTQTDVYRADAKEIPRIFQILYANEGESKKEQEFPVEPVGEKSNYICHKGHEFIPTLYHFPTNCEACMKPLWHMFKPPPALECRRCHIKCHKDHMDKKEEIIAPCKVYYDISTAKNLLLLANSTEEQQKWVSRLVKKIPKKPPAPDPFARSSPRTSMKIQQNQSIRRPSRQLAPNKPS

Usually Ki stands for a dissociation constant, usually derived from enzyme kinetics or from competition with a known ligand.

Sequence of ROCK 1 (Q13464 whole entry): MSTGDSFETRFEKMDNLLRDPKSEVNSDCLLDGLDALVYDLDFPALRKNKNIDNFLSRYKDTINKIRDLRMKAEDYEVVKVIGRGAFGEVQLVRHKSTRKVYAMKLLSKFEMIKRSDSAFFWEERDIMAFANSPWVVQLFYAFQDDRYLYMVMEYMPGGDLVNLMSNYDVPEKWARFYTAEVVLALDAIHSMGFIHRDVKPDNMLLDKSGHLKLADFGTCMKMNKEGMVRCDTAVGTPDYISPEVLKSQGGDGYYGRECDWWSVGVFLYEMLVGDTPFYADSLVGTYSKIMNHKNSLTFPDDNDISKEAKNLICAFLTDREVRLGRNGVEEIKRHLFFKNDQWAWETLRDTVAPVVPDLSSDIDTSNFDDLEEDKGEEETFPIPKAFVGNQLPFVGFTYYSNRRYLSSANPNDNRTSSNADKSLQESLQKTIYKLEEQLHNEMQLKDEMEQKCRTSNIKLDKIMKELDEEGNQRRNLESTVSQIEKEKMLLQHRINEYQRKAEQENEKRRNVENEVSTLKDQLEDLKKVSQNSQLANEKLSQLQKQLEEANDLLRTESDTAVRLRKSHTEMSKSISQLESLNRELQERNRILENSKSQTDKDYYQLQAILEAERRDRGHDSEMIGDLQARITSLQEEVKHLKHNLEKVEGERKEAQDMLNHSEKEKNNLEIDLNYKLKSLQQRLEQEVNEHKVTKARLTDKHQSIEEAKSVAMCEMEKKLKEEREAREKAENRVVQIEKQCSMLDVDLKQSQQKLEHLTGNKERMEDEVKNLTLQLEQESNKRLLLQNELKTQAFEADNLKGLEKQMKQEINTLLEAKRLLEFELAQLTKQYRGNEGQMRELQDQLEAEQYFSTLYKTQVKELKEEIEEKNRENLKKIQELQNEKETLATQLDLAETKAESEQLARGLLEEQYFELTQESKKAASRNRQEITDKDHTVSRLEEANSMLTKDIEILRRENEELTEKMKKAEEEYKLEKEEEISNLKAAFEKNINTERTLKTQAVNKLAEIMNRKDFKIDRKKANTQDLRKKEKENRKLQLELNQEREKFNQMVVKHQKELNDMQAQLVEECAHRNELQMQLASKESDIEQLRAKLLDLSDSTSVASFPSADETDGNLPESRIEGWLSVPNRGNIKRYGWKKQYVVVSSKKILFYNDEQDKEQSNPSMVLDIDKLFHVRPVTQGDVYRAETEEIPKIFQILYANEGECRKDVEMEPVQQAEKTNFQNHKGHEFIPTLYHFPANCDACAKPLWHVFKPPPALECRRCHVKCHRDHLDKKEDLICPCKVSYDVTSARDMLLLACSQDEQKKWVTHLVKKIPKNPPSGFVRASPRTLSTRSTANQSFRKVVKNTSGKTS

For `NCc1ccc(Oc2ccnc3[nH]cc(-c4cnn(Cc5ccccc5)c4)c23)c(F)c1` [Example 22, (4-((3-(1-benzyl-1H-pyrazol-4-yl)-1H-pyrrolo[2,3-b]pyridin-4-yl)oxy)-3-fluorophenyl)methanamine], the Ki in experiment [1] and in experiment [2] was under 3 nM each time.
Turning to `NCc1ccc(Oc2ccnc3[nH]cc(-c4cnn(Cc5ccncc5)c4)c23)c(F)c1` [Example 23, (3-fluoro-4-((3-(1-(pyridin-4-ylmethyl)-1H-pyrazol-4-yl)-1H-pyrrolo[2,3-b]pyridin-4-yl)oxy)phenyl)methanamine], the figures for the Ki in experiment [1] and in experiment [2] were 3 to 30 nM and under 3 nM, respectively.
The matching figures for `NCc1ccc(Oc2ccnc3[nH]cc(-c4cnn(CC5CCOCC5)c4)c23)c(F)c1` [Example 24, (3-fluoro-4-((3-(1-((tetrahydro-2H-pyran-4-yl)methyl)-1H-pyrazol-4-yl)-1H-pyrrolo[2,3-b]pyridin-4-yl)oxy)phenyl)methanamine]: 3 to 30 nM and under 3 nM.
The matching figures for `c1ccc(CNc2cc(-c3c[nH]c4nccc(Oc5ccc6c(c5)CNCC6)c34)ncn2)cc1` [Example 25, N-benzyl-6-(4-((1,2,3,4-tetrahydroisoquinolin-7-yl)oxy)-1H-pyrrolo[2,3-b]pyridin-3-yl)pyrimidin-4-amine]: under 3 nM and under 3 nM.
In the same order, the values of `c1ccc(CNc2nccc(-c3c[nH]c4nccc(Oc5ccc6c(c5)CNCC6)c34)n2)cc1` [Example 26, N-benzyl-4-(4-((1,2,3,4-tetrahydroisoquinolin-7-yl)oxy)-1H-pyrrolo[2,3-b]pyridin-3-yl)pyrimidin-2-amine] are under 3 nM and under 3 nM.
Turning to `c1ccc(CNc2cccc(-c3c[nH]c4nccc(Oc5ccc6c(c5)CNCC6)c34)n2)cc1` [Example 27, N-benzyl-6-(4-((1,2,3,4-tetrahydroisoquinolin-7-yl)oxy)-1H-pyrrolo[2,3-b]pyridin-3-yl)pyridin-2-amine], the Ki in experiment [1] and in experiment [2] was over 30 nM throughout.
In the case of `c1ccc(CNc2ccnc(-c3c[nH]c4nccc(Oc5ccc6c(c5)CNCC6)c34)n2)cc1` [Example 28, N-benzyl-2-(4-((1,2,3,4-tetrahydroisoquinolin-7-yl)oxy)-1H-pyrrolo[2,3-b]pyridin-3-yl)pyrimidin-4-amine], the Ki in experiment [1] and in experiment [2] was over 30 nM each time.
Take `O=S(=O)(CCNc1cc(-c2c[nH]c3nccc(Oc4ccc5c(c4)CNCC5)c23)ncn1)c1ccccc1` [Example 29, N-(2-(phenylsulfonyl)ethyl)-6-(4-((1,2,3,4-tetrahydroisoquinolin-7-yl)oxy)-1H-pyrrolo[2,3-b]pyridin-3-yl)pyrimidin-4-amine]: the inhibition constant Ki in experiment [1] and in experiment [2] was under 3 nM each time.
`c1nc(NCc2nccs2)cc(-c2c[nH]c3nccc(Oc4ccc5c(c4)CNCC5)c23)n1` [Example 30, 6-(4-((1,2,3,4-tetrahydroisoquinolin-7-yl)oxy)-1H-pyrrolo[2,3-b]pyridin-3-yl)-N-(thiazol-2-ylmethyl)pyrimidin-4-amine]: the Ki in experiment [1] and in experiment [2] was under 3 nM in each case.
Regarding `NCc1ccc(Oc2ccnc3[nH]cc(-c4cc(NCc5ccccc5)ncn4)c23)c(F)c1` [Example 31, 6-(4-(4-(aminomethyl)-2-fluorophenoxy)-1H-pyrrolo[2,3-b]pyridin-3-yl)-N-benzylpyrimidin-4-amine], the Ki in experiment [1] and in experiment [2] was under 3 nM in each case.
For `NCc1ccc(Oc2ccnc3[nH]cc(-c4ccnc(NCc5ccccc5)n4)c23)c(F)c1` [Example 32, 4-(4-(4-(aminomethyl)-2-fluorophenoxy)-1H-pyrrolo[2,3-b]pyridin-3-yl)-N-benzylpyrimidin-2-amine], the results for the Ki in experiment [1] and in experiment [2] were 3 to 30 nM and under 3 nM, respectively.
In the same order, the values of `NCc1ccc(Oc2ccnc3[nH]cc(-c4ccnc(NCc5ccccc5)c4)c23)c(F)c1` [Example 33, 4-(4-(4-(aminomethyl)-2-fluorophenoxy)-1H-pyrrolo[2,3-b]pyridin-3-yl)-N-benzylpyridin-2-amine] are 3 to 30 nM and under 3 nM.
The matching figures for `NCc1ccc(Oc2ccnc3[nH]cc(-c4cnc(NC(=O)Cc5ccccc5)s4)c23)cc1` [Example 34, N-(5-(4-(4-(aminomethyl)phenoxy)-1H-pyrrolo[2,3-b]pyridin-3-yl)thiazol-2-yl)-2-phenylacetamide]: 3 to 30 nM and under 3 nM.
For the molecule `c1cc(-c2c[nH]c3nccc(Oc4ccc5c(c4)CNCC5)c23)cc(NCc2nccs2)n1` [Example 35, 4-(4-((1,2,3,4-tetrahydroisoquinolin-7-yl)oxy)-1H-pyrrolo[2,3-b]pyridin-3-yl)-N-(thiazol-2-ylmethyl)pyridin-2-amine], the Ki in experiment [1] and in experiment [2] was under 3 nM in each case.
For the molecule `c1cc(-c2c[nH]c3nccc(Oc4ccc5c(c4)CNCC5)c23)cc(NCC2CC2)n1` [Example 36, N-(cyclopropylmethyl)-4-(4-((1,2,3,4-tetrahydroisoquinolin-7-yl)oxy)-1H-pyrrolo[2,3-b]pyridin-3-yl)pyridin-2-amine], the Ki in experiment [1] and in experiment [2] was under 3 nM in each case.
On to `Cc1ccc(CNc2cc(-c3c[nH]c4nccc(Oc5ccc6c(c5)CNCC6)c34)ccn2)nc1` [Example 37, N-((5-methylpyridin-2-yl)methyl)-4-(4-((1,2,3,4-tetrahydroisoquinolin-7-yl)oxy)-1H-pyrrolo[2,3-b]pyridin-3-yl)pyridin-2-amine], for which the inhibitory constant (Ki) was 3 to 30 nM in experiment [1] and under 3 nM in experiment [2].
The matching figures for `c1cc(-c2c[nH]c3nccc(Oc4ccc5c(c4)CNCC5)c23)cc(NCC2CCOCC2)n1` [Example 38, N-((tetrahydro-2H-pyran-4-yl)methyl)-4-(4-((1,2,3,4-tetrahydroisoquinolin-7-yl)oxy)-1H-pyrrolo[2,3-b]pyridin-3-yl)pyridin-2-amine]: under 3 nM and under 3 nM.
The matching figures for `O=C(Nc1cc(-c2c[nH]c3nccc(Oc4ccc5c(c4)CNCC5)c23)ccn1)C1CC1` [Example 39, N-(4-(4-((1,2,3,4-tetrahydroisoquinolin-7-yl)oxy)--1H-pyrrolo[2,3-b]pyridin3-yl)pyridin-2-yl)cyclopropanecarboxamide]: 3 to 30 nM and under 3 nM.
In the same order, the values of `O=C(Nc1cc(-c2c[nH]c3nccc(Oc4ccc5c(c4)CNCC5)c23)ccn1)C1CCCCC1` [Example 40, N-(4-(4-((1,2,3,4-tetrahydroisoquinolin-7-yl)oxy)-1H-pyrrolo[2,3-b]pyridin-3-yl)pyridin-2-yl)cyclohexanecarboxamide] are under 3 nM and under 3 nM.
`O=C(Nc1cc(-c2c[nH]c3nccc(Oc4ccc5c(c4)CNCC5)c23)ccn1)C1CCOCC1` [Example 41, N-(4-(4-((1,2,3,4-tetrahydroisoquinolin-7-yl)oxy)-1H-pyrrolo[2,3-b]pyridin-3-yl)pyridin-2-yl)tetrahydro-2H-pyran-4-carboxamide]: the Ki in experiment [1] and in experiment [2] was under 3 nM each time.
`CC(C)OCC(=O)Nc1cc(-c2c[nH]c3nccc(Oc4ccc5c(c4)CNCC5)c23)ccn1` [Example 42, 2-isopropoxy-N-(4-(4-((1,2,3,4-tetrahydroisoquinolin-7-yl)oxy)-1H-pyrrolo[2,3-b]pyridin-3-yl)pyridin-2-yl)acetamide]: the Ki in experiment [1] and in experiment [2] was under 3 nM throughout.
Turning to `O=C(CN1CCCCC1)Nc1cc(-c2c[nH]c3nccc(Oc4ccc5c(c4)CNCC5)c23)ccn1` [Example 43, 2-(piperidin-1-yl)-N-(4-(4-((1,2,3,4-tetrahydroisoquinolin-7-yl)oxy)-1H-pyrrolo[2,3-b]pyridin-3-yl)pyridin-2-yl)acetamide], the Ki in experiment [1] and in experiment [2] was under 3 nM throughout.
For `CC1(C(=O)Nc2cc(-c3c[nH]c4nccc(Oc5ccc6c(c5)CNCC6)c34)ccn2)CC1` [Example 44, 1-methyl-N-(4-(4-((1,2,3,4-tetrahydroisoquinolin-7-yl)oxy)-1H-pyrrolo[2,3-b]pyridin-3-yl)pyridin-2-yl)cyclopropanecarboxamide], the Ki in experiment [1] was 3 to 30 nM; in experiment [2] it was under 3 nM.
In the same order, the values of `NC(C(=O)Nc1cc(-c2c[nH]c3nccc(Oc4ccc5c(c4)CNCC5)c23)ccn1)c1ccccc1` (stereo not shown) [Example 45, 2-amino-2-phenyl-N-(4-(4-((1,2,3,4-tetrahydroisoquinolin-7-yl)oxy)-1H-pyrrolo[2,3-b]pyridin-3-yl)pyridin-2-yl)acetamide] are under 3 nM and under 3 nM.
The matching figures for `CC1(C)CCN(C(=O)Nc2cc(-c3c[nH]c4nccc(Oc5ccc6c(c5)CNCC6)c34)ccn2)CC1` [Example 46, 4,4-dimethyl-N-(4-(4-((1,2,3,4-tetrahydroisoquinolin-7-yl)oxy)-1H-pyrrolo[2,3-b]pyridin-3-yl)pyridin-2-yl)piperidine-1-carboxamide]: 3 to 30 nM and under 3 nM.
`CN(C(=O)Nc1cc(-c2c[nH]c3nccc(Oc4ccc5c(c4)CNCC5)c23)ccn1)C1CCCCC1` [Example 47, 1-cyclohexyl-1-methyl-3-(4-(4-((1,2,3,4-tetrahydroisoquinolin-7-yl)oxy)-1H-pyrrolo[2,3-b]pyridin-3-yl)pyridin-2-yl)urea]: the Ki in experiment [1] and in experiment [2] was under 3 nM in each case.
